# According to patent publication US12391648B2, “Pyridyloxy thioester derivative and preparation method therefor, herbicidal composition, and application” (Qingdao Kingagroot Chemical Compound Co., Ltd., priority 2018, dated 2025):
# Legend:
# Assay in all cases: Post-emergence test experiment (Table 3, 1000 g/ha)
# Assay type in all cases: in vivo
# Details in all cases: post-emergence spray, after 3 weeks, fresh weight inhibition
# [1] = system: Monochoria vaginalis
# Method in brief: (§1)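 Weed seeds sown in soil-filled pots in greenhouse, sprayed at 2-3 leaf stage (2 weeks after sowing) with compound in acetone/tween-80 plus methyl oleate emulsible concentrate (1.5 L/ha) diluted in water. Fresh-weight growth inhibition scored after 3 weeks on 0-5 scale (5: >85%, 0: <5%).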
# [2] = system: Galium spurium
# Method in brief: as §1
# [3] = system: Leptochloa chinensis
# Method in brief: as §1
# [4] = system: Setaria viridis
# Method in brief: as §1
# [5] = system: Abutilon theophrasti
# Method in brief: as §1
# [6] = system: Digitaria sanguinalis
# Method in brief: as §1
Structure (SMILES),Activity level (growth inhibition rate) Monochoria Vaginalis [1],Activity level (growth inhibition rate) Galium spurium [2],Activity level (growth inhibition rate) Leptochloa chinensis [3],Activity level (growth inhibition rate) Setaria viridis [4],Activity level (growth inhibition rate) Abutilon theophrasti [5],Activity level (growth inhibition rate) Digitaria sanguinalis [6]
CCCCSC(=O)C(C)Oc1nc(F)c(Cl)c(N)c1Cl (stereo not drawn) [Compound 70],5 (Level 5: the growth inhibition rate is greater than 85%),5 (Level 5: the growth inhibition rate is greater than 85%),5 (Level 5: the growth inhibition rate is greater than 85%),5 (Level 5: the growth inhibition rate is greater than 85%),5 (Level 5: the growth inhibition rate is greater than 85%),5 (Level 5: the growth inhibition rate is greater than 85%)
CC(C)=NOCCSC(=O)C(C)Oc1nc(C)c(Cl)c(N)c1Cl (stereo not drawn) [Compound 5],5 (Level 5: the growth inhibition rate is greater than 85%),5 (Level 5: the growth inhibition rate is greater than 85%),5 (Level 5: the growth inhibition rate is greater than 85%),5 (Level 5: the growth inhibition rate is greater than 85%),5 (Level 5: the growth inhibition rate is greater than 85%),5 (Level 5: the growth inhibition rate is greater than 85%)
CSC(=O)C(C)Oc1nc(Cl)c(Cl)c(N)c1Cl (stereo not drawn) [Compound 2],5 (Level 5: the growth inhibition rate is greater than 85%),5 (Level 5: the growth inhibition rate is greater than 85%),5 (Level 5: the growth inhibition rate is greater than 85%),5 (Level 5: the growth inhibition rate is greater than 85%),5 (Level 5: the growth inhibition rate is greater than 85%),5 (Level 5: the growth inhibition rate is greater than 85%)
CCCCC(C)SC(=O)C(C)Oc1nc(F)c(Cl)c(N)c1Cl (stereo not drawn) [Compound 151],5 (Level 5: the growth inhibition rate is greater than 85%),5 (Level 5: the growth inhibition rate is greater than 85%),5 (Level 5: the growth inhibition rate is greater than 85%),5 (Level 5: the growth inhibition rate is greater than 85%),5 (Level 5: the growth inhibition rate is greater than 85%),5 (Level 5: the growth inhibition rate is greater than 85%)
CSC(=O)C(C)Oc1ncc(Cl)c(N)c1C (stereo not drawn) [Compound 21],5 (Level 5: the growth inhibition rate is greater than 85%),5 (Level 5: the growth inhibition rate is greater than 85%),5 (Level 5: the growth inhibition rate is greater than 85%),5 (Level 5: the growth inhibition rate is greater than 85%),5 (Level 5: the growth inhibition rate is greater than 85%),5 (Level 5: the growth inhibition rate is greater than 85%)
CCOC(=O)SC(=O)C(C)Oc1nc(F)c(Cl)c(N)c1Cl (stereo not drawn) [Compound 101],5 (Level 5: the growth inhibition rate is greater than 85%),5 (Level 5: the growth inhibition rate is greater than 85%),5 (Level 5: the growth inhibition rate is greater than 85%),5 (Level 5: the growth inhibition rate is greater than 85%),5 (Level 5: the growth inhibition rate is greater than 85%),5 (Level 5: the growth inhibition rate is greater than 85%)
CSC(=O)C(C)Oc1ncc(C(C)C)c(N)c1Cl (stereo not drawn) [Compound 9],5 (Level 5: the growth inhibition rate is greater than 85%),5 (Level 5: the growth inhibition rate is greater than 85%),5 (Level 5: the growth inhibition rate is greater than 85%),5 (Level 5: the growth inhibition rate is greater than 85%),5 (Level 5: the growth inhibition rate is greater than 85%),5 (Level 5: the growth inhibition rate is greater than 85%)
CSC(=O)C(C)Oc1nc(F)c(Br)c(N)c1Br (stereo not drawn) [Compound 12],5 (Level 5: the growth inhibition rate is greater than 85%),5 (Level 5: the growth inhibition rate is greater than 85%),5 (Level 5: the growth inhibition rate is greater than 85%),5 (Level 5: the growth inhibition rate is greater than 85%),5 (Level 5: the growth inhibition rate is greater than 85%),5 (Level 5: the growth inhibition rate is greater than 85%)
CSC(=O)C(C)Oc1nc(I)c(Cl)c(N)c1Cl (stereo not drawn) [Compound 17],5 (Level 5: the growth inhibition rate is greater than 85%),5 (Level 5: the growth inhibition rate is greater than 85%),5 (Level 5: the growth inhibition rate is greater than 85%),5 (Level 5: the growth inhibition rate is greater than 85%),5 (Level 5: the growth inhibition rate is greater than 85%),5 (Level 5: the growth inhibition rate is greater than 85%)
C=CCOC(=O)C(C)(C)SC(=O)C(C)Oc1nc(F)c(Cl)c(N)c1Cl (stereo not drawn) [Compound 96],5 (Level 5: the growth inhibition rate is greater than 85%),5 (Level 5: the growth inhibition rate is greater than 85%),5 (Level 5: the growth inhibition rate is greater than 85%),5 (Level 5: the growth inhibition rate is greater than 85%),5 (Level 5: the growth inhibition rate is greater than 85%),5 (Level 5: the growth inhibition rate is greater than 85%)
CSC(=O)C(C)Oc1nc(Cl)c(C2CC2)c(N)c1Cl (stereo not drawn) [Compound 10],5 (Level 5: the growth inhibition rate is greater than 85%),5 (Level 5: the growth inhibition rate is greater than 85%),5 (Level 5: the growth inhibition rate is greater than 85%),5 (Level 5: the growth inhibition rate is greater than 85%),5 (Level 5: the growth inhibition rate is greater than 85%),5 (Level 5: the growth inhibition rate is greater than 85%)
CCSC(=O)C(C)Oc1ncc(Cl)c(N)c1C(F)(F)F (stereo not drawn) [Compound 16],5 (Level 5: the growth inhibition rate is greater than 85%),5 (Level 5: the growth inhibition rate is greater than 85%),5 (Level 5: the growth inhibition rate is greater than 85%),5 (Level 5: the growth inhibition rate is greater than 85%),5 (Level 5: the growth inhibition rate is greater than 85%),5 (Level 5: the growth inhibition rate is greater than 85%)
CC(Oc1nc(F)c(Cl)c(N)c1Cl)C(=O)SC(F)(F)F (stereo not drawn) [Compound 75],5 (Level 5: the growth inhibition rate is greater than 85%),5 (Level 5: the growth inhibition rate is greater than 85%),5 (Level 5: the growth inhibition rate is greater than 85%),5 (Level 5: the growth inhibition rate is greater than 85%),5 (Level 5: the growth inhibition rate is greater than 85%),5 (Level 5: the growth inhibition rate is greater than 85%)
CCCCCSC(=O)C(C)Oc1nc(F)c(Cl)c(N)c1Cl (stereo not drawn) [Compound 71],5 (Level 5: the growth inhibition rate is greater than 85%),5 (Level 5: the growth inhibition rate is greater than 85%),5 (Level 5: the growth inhibition rate is greater than 85%),5 (Level 5: the growth inhibition rate is greater than 85%),5 (Level 5: the growth inhibition rate is greater than 85%),5 (Level 5: the growth inhibition rate is greater than 85%)
CC(C)=NSC(=O)C(C)Oc1nc(F)c(Cl)c(N)c1Cl (stereo not drawn) [Compound 102],5 (Level 5: the growth inhibition rate is greater than 85%),5 (Level 5: the growth inhibition rate is greater than 85%),5 (Level 5: the growth inhibition rate is greater than 85%),5 (Level 5: the growth inhibition rate is greater than 85%),5 (Level 5: the growth inhibition rate is greater than 85%),5 (Level 5: the growth inhibition rate is greater than 85%)
